The source of these data is PubChem BioAssay (NCI).

“And” between values parts separate entries of the source, which are not always exact repeats. Equal values may be shown once.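 The compound was tested at five concentrations on cells cultured in 96-well plates, with a 48-hour exposure period. Abbreviation: GI50, concentration required for 50% inhibition of growth. TGI denotes the concentration required for complete inhibition of growth.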

Common to all, as to experiment: NCI anticancer screen, dose series, 48 h
Assay [1] relates to NCI-H226 lung.
The test system of assay [2] is LOX IMVI melanoma.
For assay [3], the system named is RXF 393 renal.
In assay [4] the test system is CCRF-CEM leukemia.
In assay [5] the test system is HT29 colon.
In assay [6] the test system is SK-OV-3 ovarian.
In assay [7] the test system is MDA-MB-231 breast.
Assay [8] deals with COLO 205 colon.
The subject of assay [9] is EKVX NSCLC.
In assay [10] the test system is T-47D breast.

For `COc1cc(C[C@@]2(C)[C@@H]3CCC[C@H](CO)[C@@]3(C)CC[C@@H]2C)c(Cl)c(OC)c1`, the TGI in [1] is 32.5 µM; in [2], 32.9 µM; in assay [3] it was 24.7 µM; in [4], more than 100 µM; in [5], 26 µM; in assay [6] it was 31.3 µM. Further, the TGI came out at 32.3 µM in [7], 30.2 µM in [8], 27.5 µM in assay [9] and 22.9 µM in [10].

Take `Cc1[nH]n(-c2nc(-c3ccccc3)cc(=O)[nH]2)c(=O)c1CCO`: the TGI in [1], in assay [2], in [3], in assay [4], in assay [5] and in assay [6] was more than 100 µM in each case. Moreover, the TGI in assay [7], in assay [8], in [9] and in assay [10] was more than 100 µM each time.

For `CC(C)(C)OC(=O)NC(CSCc1ccc(C(=O)c2ccccc2)cc1)C(=O)N1CCN(CCCCN2c3ccccc3Sc3cc(N=[N+]=[N-])ccc32)CC1` (configuration not stated), the TGI in [1], in assay [2], in assay [3], in assay [4], in [5] and in assay [6] was more than 100 µM each time. In addition, the TGI in [7], in assay [8], in assay [9] and in assay [10] was more than 100 µM throughout.

As for `ClCCCN1CCN(CCCl)CC1`, the TGI in [1] was 879 µM; in [2], 608 µM; in [3] it was 439 µM; in [4], 437 µM; in assay [5], more than 818 µM; in assay [6], 166 µM. Moreover, the TGI in assay [7] was more than 768 µM; in assay [8], 468 µM; in assay [9] it was 873 µM; in assay [10] it was more than 745 µM. Besides, the GI50 was 23.9 µM in assay [2] and 2.54 µM in assay [4].

For the compound `Nc1cc(C2CCCc3c2[nH]c2ccccc32)ccc1O` (configuration not stated), the TGI in [1] is more than 100 µM; in assay [2] it was 71.2 µM; in assay [3], more than 100 µM; in [4], more than 100 µM; in [5], more than 100 µM; in assay [6] it was more than 100 µM. Besides, the TGI in [7], in [8], in assay [9] and in assay [10] was more than 100 µM in each case.

For the compound `COc1cc(/C=C2\C(=O)N(c3cccc(NC(C)=O)c3)C(c3ccccc3)S2(=O)=O)cc(OC)c1OC` (configuration not stated), the TGI in [1], in assay [2], in [3], in assay [4], in [5] and in assay [6] was more than 100 µM throughout. The TGI in assay [7], in [8], in assay [9] and in [10] was more than 100 µM in each case.

For `CC1=NNC(=O)C1C1(C(=O)O)CC(c2c[nH]c3ccccc23)=NC(=S)N1` (configuration not stated), the TGI in [1] was 85.8 µM; in assay [2] it was 39.6 µM; in [3] it was 94.3 µM; in assay [4], 64.1 µM; in assay [5], 78.9 µM; in [6], more than 100 µM. The TGI was 81.7 µM in assay [7], 34.1 µM in [8], more than 100 µM in assay [9] and more than 100 µM in assay [10].

Turning to `Nc1cc(CO)cc(Nc2c3ccccc3nc3ccccc23)c1`, the TGI in assay [1] was 34.9 µM; in assay [2], 31.5 µM; in [3] it was 31.4 µM; in assay [4], more than 100 µM; in assay [5], 28.8 µM; in [6] it was 29.5 µM. Besides, the TGI in assay [7] stood at 24.8 µM; in assay [8], 23.8 µM; in assay [9], 31.8 µM; in [10], 34.4 µM.

As for `CS(=O)(=O)OCCN(CCOS(C)(=O)=O)c1ccc(C=Nc2ccc(-c3csc(Cc4ccccc4)n3)cc2)c(Cl)c1`, the TGI is 1.79 µM in assay [1]; more than 57.3 µM in assay [2]; 98.6 µM in assay [3]; more than 61.2 µM in assay [4]; 64.5 µM in assay [5]; more than 77.7 µM in assay [6]. In addition, the TGI in [7] was 75.6 µM; in assay [8] it was 36 µM; in assay [9], more than 100 µM; in assay [10], more than 84.2 µM.

`NCCCn1c(Cl)nc2ccccc21`: the TGI in [1], in assay [2], in assay [3], in assay [4], in assay [5] and in assay [6] was more than 100 µM in each case. Also, the TGI in [7], in assay [8], in assay [9] and in assay [10] was more than 100 µM each time.

Regarding `CCCC(=O)OCC1OC(n2cc(F)c(=O)[nH]c2=O)CC1OC(=O)CCC` (configuration not stated), the TGI in assay [1], in assay [2], in assay [3], in assay [4], in assay [5] and in [6] was more than 10 µM throughout. The TGI in assay [7], in assay [8], in assay [9] and in [10] was more than 10 µM each time.

`Cc1cn(S(=O)(=O)c2ccccc2)c2c(OCc3ccccc3)cc([N+](=O)[O-])cc12`: the TGI in assay [1], in assay [2], in [3], in [4], in [5] and in assay [6] was more than 100 µM each time. Also, the TGI in assay [7], in assay [8], in [9] and in [10] was more than 100 µM in each case.

With `CC(C#N)(NO)C(C)(C#N)NO` (configuration not stated), the TGI in assay [1], in assay [2], in [3], in [4], in assay [5] and in assay [6] was more than 100 µM in each case. For the same compound, the TGI in assay [7], in assay [8], in assay [9] and in assay [10] was more than 100 µM throughout.

For the compound `CC(=O)C1=C(C)N(c2ccccc2)C2(O)C3=C(C(=O)c4ccccc4C3=O)C(O)=CC12Cl` (configuration not stated), the TGI in assay [1] was 55.7 µM; in assay [2], more than 100 µM; in assay [3], 25.6 µM; in [4] it was 62.5 µM; in assay [5], 8.45 µM; in assay [6], more than 100 µM. Besides, the TGI in assay [7], in [8], in [9] and in assay [10] was more than 100 µM in each case.

Take `COc1cc2c(cc1OC)C(CCN)=NCC2`: the TGI in assay [1] was more than 64.4 µM; in assay [2] it was 36.7 µM; in [3] it was 30.4 µM; in [4], 5.12 µM; in assay [5] it was 41.3 µM; in assay [6], more than 100 µM. Also, the TGI in assay [7] is 30.8 µM; in assay [8], 27.4 µM; in [9] it was 59 µM; in [10], 31.1 µM.

Consider `CCN(CC)Cc1cc(N=Nc2c(O)ccc3c(N=Nc4ccc(O)c(CN(CC)CC)c4)c(O)ccc23)ccc1O`, for which the TGI is 22.7 µM in [1]; 3.37 µM in assay [2]; more than 23.1 µM in [3]; more than 53.3 µM in [4]; 9.31 µM in assay [5]; 6.85 µM in assay [6]. In addition, the TGI in assay [7] was 4.52 µM; in [8], 3.6 µM; in assay [9], 21.2 µM; in assay [10], 32.7 µM.

Regarding `O=C1c2c(c3c4cc(F)ccc4oc3c3[nH]c4ccccc4c23)C(=O)N1O`, the GI50 in assay [1] was 3.85 µM; in assay [2], 0.5 µM; in assay [3], 1.92 µM; in assay [4] it was 0.239 µM; in assay [5] it was 3.06 µM; in assay [6], 2.48 µM. Further, the GI50 in assay [7] was 2.68 µM; in assay [8], 4.15 µM; in assay [9], 6.85 µM; in assay [10], 1.59 µM. The TGI is 73.8 µM in [1]; 2.15 µM in [2]; 6.85 µM in assay [3]; more than 100 µM in assay [4]; more than 100 µM in [5]; 19.6 µM in assay [6]. Besides, the TGI in [7] was 21.6 µM; in assay [8] it was more than 100 µM; in assay [9], 65.8 µM; in assay [10] it was more than 100 µM.

On to `COc1ccc2[nH]c3ccc4cc[n+](CCN5CCC(C6CCN(CC[n+]7ccc8ccc9[nH]c%10ccc(OC)cc%10c9c8c7)CC6)CC5)cc4c3c2c1`, for which the TGI in assay [1] is 50 µM; in assay [2] it was 50 µM and > 58.6 µM; in [3], 50 µM and 10.8 µM; in assay [4] it was 25.4 µM and 16.8 µM; in assay [5], 31.4 µM and > 100 µM; in [6], 45.8 µM and 20.6 µM. For the same compound, the TGI is 50 µM in assay [7]; more than 50 µM in [8]; > 50 µM and 63.1 µM in [9]; 50 µM in assay [10]. Also, the GI50 in assay [3] was 38.1 µM; in assay [4], 0.566 µM; in [5] it was 0.938 µM; in assay [6], 33.2 µM; in [9], 3.19 µM.

`O=C(Nc1ccccc1C(=O)NCc1ccccc1)/C(=C/c1ccccc1O)NC(=O)c1ccccc1`: the TGI in assay [1], in assay [2], in [3], in assay [4], in assay [5] and in [6] was more than 100 µM throughout. For the same compound, the TGI in [7], in assay [8], in [9] and in assay [10] was more than 100 µM in each case.

As to `CN(C)N1C(=O)C(=O)N(c2cccc3ccccc23)C1=O`, the TGI in assay [1], in assay [2], in assay [3], in assay [4], in assay [5] and in assay [6] was more than 10 µM throughout. Further, the TGI in assay [7], in assay [8], in assay [9] and in assay [10] was more than 10 µM in each case.

Regarding `COc1c(C(=O)/C(=N/Nc2ccc(C(=O)O)cc2)C(C)=O)c(O)cc2occc12`, the TGI in assay [1], in [2], in assay [3], in [4], in assay [5] and in assay [6] was more than 100 µM throughout. Besides, the TGI in [7], in assay [8], in assay [9] and in assay [10] was more than 100 µM throughout.

Take `CC1=C(C)C(=O)OC(C(C)(O)C2(O)CC3OC34C3CC(O)C56OC5C=CC(=O)C6(C)C3CCC42C)C1` (configuration not stated): the TGI in assay [1] was 12.9 µM; in assay [2], 5.38 µM; in [3], 6.68 µM; in assay [4], more than 22.2 µM; in assay [5] it was 4.2 µM; in [6], 14.2 µM. Further, the TGI is 13.1 µM in assay [7], more than 29 µM in assay [8], 10.4 µM in assay [9] and more than 43.3 µM in assay [10].

For the compound `CCOC(CBr)OC1C(=O)OCC1(C)C` (configuration not stated), the TGI in [1], in assay [2], in assay [3], in [4], in assay [5] and in [6] was more than 100 µM in each case. The TGI in assay [7], in assay [8], in [9] and in assay [10] was more than 100 µM in each case.

Consider `COC(=O)C1(Cc2ccc3c(c2)CCC3)Cc2ccc3c(c2C1=O)CCC3` (configuration not stated), for which the TGI in [1] is more than 87.2 µM; in assay [2], more than 65.3 µM; in [3], 22.7 µM; in assay [4] it was more than 83.1 µM; in assay [5], more than 34.8 µM; in assay [6] it was more than 100 µM. Further, the TGI was more than 87.6 µM in assay [7], 9.16 µM in assay [8], more than 100 µM in assay [9] and more than 68.6 µM in [10].

With `CCOC(=O)NC(Nc1ccc(F)cc1F)(C(F)(F)F)C(F)(F)F`, the TGI in assay [1], in [2], in assay [3], in [4], in assay [5] and in assay [6] was more than 100 µM throughout. The TGI in assay [7], in assay [8], in [9] and in [10] was more than 100 µM each time.
